Activity calls are given as the source filed them.
Tests used:
[1] = molecular target: Albumin (Bos taurus, UniProt P02769); experiment: Counterscreen for inhibitors of T-cell receptor (TCR)-CD3 interaction: Fluorescence-based biochemical high throughput dose response assay to identify inhibitors of T-cell receptor (TCR)-CD3 interaction using a TAMRA-labeled BSA probe.; type: functional
[2] = cells; type: functional, cell-based
[3] = cells; type: functional, cell-based; remark: listed apart in the source
[4] = molecular target: T1, Zinc finger protein mex-5 (Caenorhabditis elegans, UniProt Q9XUB2); experiment: MEX-5/TCR-2 RNA interaction inhibitors, dose response, biochemical, C. elegans, fluorescence polarization (AID 1960)
T1 sequence (Q9XUB2 whole entry): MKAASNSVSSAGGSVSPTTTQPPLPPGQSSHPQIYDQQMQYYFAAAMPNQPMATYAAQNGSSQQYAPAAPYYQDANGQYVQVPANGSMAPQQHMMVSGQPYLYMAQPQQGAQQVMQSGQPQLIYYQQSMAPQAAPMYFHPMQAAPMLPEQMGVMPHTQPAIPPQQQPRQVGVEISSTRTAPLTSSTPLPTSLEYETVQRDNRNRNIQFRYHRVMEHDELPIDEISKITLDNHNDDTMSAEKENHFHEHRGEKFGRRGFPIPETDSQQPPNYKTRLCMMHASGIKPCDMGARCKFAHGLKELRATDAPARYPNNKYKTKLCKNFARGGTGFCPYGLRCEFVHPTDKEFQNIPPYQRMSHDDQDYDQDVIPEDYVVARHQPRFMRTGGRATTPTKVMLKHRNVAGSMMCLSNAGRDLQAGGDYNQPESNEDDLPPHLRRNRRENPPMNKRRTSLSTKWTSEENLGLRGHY

[5] = molecular target: SUMO-activating enzyme (Homo sapiens, UniProt Q9UBT2); experiment: inhibitors of in vitro SUMOylation cascade, primary screen, biochemical, HTRF, uHTS (AID 2006); type: protein-complex assay
[6] = molecular target: T2, Sentrin-specific protease 8 (Homo sapiens, UniProt Q96LD8); type: functional
T2 sequence (Q96LD8 whole entry): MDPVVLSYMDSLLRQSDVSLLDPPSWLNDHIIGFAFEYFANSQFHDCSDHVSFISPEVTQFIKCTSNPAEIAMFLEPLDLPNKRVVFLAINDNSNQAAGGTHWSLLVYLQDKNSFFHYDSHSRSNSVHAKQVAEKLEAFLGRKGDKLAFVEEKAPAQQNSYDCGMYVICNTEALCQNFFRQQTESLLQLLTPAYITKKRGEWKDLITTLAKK

[7] = molecular target: T2, Sentrin-specific protease 8; type: functional; remark: listed apart in the source
[8] = molecular target: Apoptotic protease-activating factor 1 (Homo sapiens, UniProt O14727); type: functional
[9] = molecular target: T3, RNA-binding protein pos-1 (Caenorhabditis elegans, UniProt G5EF15); experiment: inhibitors of POS-1/mex-3 RNA binding, dose response, biochemical, fluorescence polarization (AID 1964);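 note: purified POS-1 fused to maltose binding protein made in E. coli; potency of compounds blocking POS-1 binding to fluorescent RNA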
T3 sequence (G5EF15 whole entry): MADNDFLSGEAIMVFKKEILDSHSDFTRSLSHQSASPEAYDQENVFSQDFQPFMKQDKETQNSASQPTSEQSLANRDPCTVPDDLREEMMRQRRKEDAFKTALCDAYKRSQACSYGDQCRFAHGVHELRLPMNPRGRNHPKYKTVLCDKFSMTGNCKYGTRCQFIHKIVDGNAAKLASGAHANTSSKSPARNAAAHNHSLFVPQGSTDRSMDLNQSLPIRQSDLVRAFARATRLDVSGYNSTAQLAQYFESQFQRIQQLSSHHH

[10] = molecular target: T4, Voltage-gated N-type calcium channel alpha-1B subunit/Amyloid beta A4 precursor protein-binding family A member 1 (Homo sapiens, UniProt Q00975+Q02410); type: protein assay
T4 sequence (Q00975 whole entry): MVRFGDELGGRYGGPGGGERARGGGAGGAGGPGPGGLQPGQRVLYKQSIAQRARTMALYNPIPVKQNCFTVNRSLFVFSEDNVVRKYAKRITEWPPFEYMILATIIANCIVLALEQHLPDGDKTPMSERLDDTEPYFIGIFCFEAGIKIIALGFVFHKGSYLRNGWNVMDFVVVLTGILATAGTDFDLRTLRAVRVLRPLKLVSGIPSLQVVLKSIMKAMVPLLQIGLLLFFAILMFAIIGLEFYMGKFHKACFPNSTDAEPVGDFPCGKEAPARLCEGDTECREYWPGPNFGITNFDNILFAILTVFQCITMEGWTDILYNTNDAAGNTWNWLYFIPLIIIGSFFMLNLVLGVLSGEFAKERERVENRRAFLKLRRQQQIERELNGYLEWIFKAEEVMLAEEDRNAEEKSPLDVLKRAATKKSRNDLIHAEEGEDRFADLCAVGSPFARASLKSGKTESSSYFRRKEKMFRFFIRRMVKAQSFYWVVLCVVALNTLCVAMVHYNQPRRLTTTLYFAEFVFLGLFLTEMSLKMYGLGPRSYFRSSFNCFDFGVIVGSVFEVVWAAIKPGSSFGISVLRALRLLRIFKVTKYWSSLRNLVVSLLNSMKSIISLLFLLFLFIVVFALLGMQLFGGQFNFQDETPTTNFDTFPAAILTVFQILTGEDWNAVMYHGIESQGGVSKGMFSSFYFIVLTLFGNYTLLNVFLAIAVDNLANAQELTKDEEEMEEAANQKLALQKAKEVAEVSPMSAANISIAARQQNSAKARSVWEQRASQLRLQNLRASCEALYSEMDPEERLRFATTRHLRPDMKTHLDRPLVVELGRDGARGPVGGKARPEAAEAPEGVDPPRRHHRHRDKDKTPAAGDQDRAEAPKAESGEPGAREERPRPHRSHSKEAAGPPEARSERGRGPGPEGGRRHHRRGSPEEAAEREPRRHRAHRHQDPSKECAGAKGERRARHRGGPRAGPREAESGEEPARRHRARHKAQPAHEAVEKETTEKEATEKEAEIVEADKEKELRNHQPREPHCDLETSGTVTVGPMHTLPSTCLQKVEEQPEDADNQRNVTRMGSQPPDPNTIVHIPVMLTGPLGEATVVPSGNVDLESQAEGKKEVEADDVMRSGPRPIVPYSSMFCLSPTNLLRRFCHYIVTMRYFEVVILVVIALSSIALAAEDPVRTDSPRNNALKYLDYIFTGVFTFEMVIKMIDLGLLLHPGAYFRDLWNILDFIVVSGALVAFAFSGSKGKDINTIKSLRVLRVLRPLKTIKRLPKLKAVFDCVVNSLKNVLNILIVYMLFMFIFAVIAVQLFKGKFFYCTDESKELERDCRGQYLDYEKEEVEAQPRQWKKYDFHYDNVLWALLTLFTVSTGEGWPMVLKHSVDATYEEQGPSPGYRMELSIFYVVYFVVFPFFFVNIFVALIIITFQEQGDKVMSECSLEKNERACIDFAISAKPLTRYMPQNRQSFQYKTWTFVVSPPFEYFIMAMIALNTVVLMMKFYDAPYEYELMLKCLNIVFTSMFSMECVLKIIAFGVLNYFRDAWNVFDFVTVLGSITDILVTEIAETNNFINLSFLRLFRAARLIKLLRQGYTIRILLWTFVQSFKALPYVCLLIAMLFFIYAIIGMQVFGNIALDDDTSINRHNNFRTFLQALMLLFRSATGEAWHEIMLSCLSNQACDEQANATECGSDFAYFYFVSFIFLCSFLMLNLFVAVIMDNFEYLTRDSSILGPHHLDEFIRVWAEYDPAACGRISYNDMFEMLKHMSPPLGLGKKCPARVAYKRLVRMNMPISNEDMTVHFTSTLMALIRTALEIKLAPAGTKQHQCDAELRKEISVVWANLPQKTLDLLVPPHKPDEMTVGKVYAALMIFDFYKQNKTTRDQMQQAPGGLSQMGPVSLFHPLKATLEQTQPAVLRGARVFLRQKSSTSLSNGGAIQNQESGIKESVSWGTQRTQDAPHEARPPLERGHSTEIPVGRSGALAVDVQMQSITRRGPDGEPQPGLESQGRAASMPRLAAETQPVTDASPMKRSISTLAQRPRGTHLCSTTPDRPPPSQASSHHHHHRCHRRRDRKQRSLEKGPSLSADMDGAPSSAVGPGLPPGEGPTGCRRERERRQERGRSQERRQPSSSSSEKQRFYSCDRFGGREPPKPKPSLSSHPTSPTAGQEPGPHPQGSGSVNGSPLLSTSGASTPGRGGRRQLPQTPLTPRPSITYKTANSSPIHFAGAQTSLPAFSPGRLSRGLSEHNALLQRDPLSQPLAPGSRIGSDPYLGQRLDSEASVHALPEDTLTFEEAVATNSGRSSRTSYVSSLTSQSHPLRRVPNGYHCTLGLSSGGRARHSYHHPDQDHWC
T4 sequence (Q02410 whole entry): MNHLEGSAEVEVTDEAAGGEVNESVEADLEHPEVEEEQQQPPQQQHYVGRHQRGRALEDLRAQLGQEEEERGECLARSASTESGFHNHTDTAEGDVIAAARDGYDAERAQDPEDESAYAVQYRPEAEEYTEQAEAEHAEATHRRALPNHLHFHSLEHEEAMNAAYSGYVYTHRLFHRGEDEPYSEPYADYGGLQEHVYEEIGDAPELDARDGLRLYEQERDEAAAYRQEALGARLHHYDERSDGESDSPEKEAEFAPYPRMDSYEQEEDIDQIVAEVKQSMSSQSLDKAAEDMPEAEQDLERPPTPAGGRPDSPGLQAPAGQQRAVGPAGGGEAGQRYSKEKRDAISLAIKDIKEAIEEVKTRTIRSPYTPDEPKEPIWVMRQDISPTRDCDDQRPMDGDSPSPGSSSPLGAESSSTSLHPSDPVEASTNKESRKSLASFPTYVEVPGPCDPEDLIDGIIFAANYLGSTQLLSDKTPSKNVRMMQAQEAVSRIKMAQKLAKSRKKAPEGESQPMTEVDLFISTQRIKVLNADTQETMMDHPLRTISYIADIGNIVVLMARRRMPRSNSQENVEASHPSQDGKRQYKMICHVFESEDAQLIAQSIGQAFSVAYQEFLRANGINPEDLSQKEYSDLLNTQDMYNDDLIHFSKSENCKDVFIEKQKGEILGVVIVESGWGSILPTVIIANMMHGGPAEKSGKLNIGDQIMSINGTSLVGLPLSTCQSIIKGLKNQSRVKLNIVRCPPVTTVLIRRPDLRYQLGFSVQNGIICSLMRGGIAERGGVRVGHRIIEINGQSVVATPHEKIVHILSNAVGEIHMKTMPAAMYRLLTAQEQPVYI

[11] = molecular target: T4, Voltage-gated N-type calcium channel alpha-1B subunit/Amyloid beta A4 precursor protein-binding family A member 1; type: protein assay; remark: listed apart in the source
[12] = HEK293T cytotoxicity, dose response, cytotoxicity control for miR-122 modulator project, cell-based, activator set, cherry-pick (AID 720690); type: functional;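 note: HEK293T human cells scored for general mammalian cytotoxicity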
[13] = Fluorescence-based cell-based high throughput dose response assay for inhibitors of the interaction of nucleotide-binding oligomerization domain containing 2 (NOD2) and the receptor-interacting serine-threonine kinase 2 (RIPK2).; type: functional; settings: Homo sapiens
[14] = system: INS1; experiment: beta cell apoptosis inhibitors, cytokine rescue, dose response, luminescence, retest (AID 449756); type: functional, cell-based; settings: Rattus norvegicus;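 note: cell death triggered by IL-1 beta plus TNF-alpha plus IFN-gamma mixture; protective hits raise ATP signal compared with cytokine alone wells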
[15] = inhibitors of SNCA 5'UTR-driven reporter translation, confirmation, H4 neuroglioma cells, luminescence (AID 1988); type: functional, cell-based
[16] = inhibitors of firefly luciferase expression or activity, dose response, H4 neuroglioma cells, luminescence (AID 1990); type: functional, cell-based
[17] = molecular target: Paired box protein Pax-8 (Homo sapiens, UniProt Q06710); experiment: inhibitors of PAX8-driven TPO luciferase reporter, dose response, RMG-I cells, cherry-pick (AID 687027); type: functional, cell-based;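 note: luciferase reporter driven by Pax8 target thyroperoxidase promoter measured by SteadyGlo luminescence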
Chain of Paired box protein Pax-8 (Q06710 whole entry): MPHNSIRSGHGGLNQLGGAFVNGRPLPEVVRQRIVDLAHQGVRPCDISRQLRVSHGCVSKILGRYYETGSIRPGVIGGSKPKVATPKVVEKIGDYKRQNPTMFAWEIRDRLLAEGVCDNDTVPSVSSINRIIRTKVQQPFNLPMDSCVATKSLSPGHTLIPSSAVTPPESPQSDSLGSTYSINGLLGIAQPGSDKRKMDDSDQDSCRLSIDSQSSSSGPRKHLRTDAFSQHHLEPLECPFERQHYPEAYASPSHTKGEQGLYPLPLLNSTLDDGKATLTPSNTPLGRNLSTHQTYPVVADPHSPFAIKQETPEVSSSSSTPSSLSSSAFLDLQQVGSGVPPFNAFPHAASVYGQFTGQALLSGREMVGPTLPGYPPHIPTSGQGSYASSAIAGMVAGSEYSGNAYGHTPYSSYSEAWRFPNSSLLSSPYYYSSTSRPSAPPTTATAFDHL

Chain of Albumin (P02769 whole entry): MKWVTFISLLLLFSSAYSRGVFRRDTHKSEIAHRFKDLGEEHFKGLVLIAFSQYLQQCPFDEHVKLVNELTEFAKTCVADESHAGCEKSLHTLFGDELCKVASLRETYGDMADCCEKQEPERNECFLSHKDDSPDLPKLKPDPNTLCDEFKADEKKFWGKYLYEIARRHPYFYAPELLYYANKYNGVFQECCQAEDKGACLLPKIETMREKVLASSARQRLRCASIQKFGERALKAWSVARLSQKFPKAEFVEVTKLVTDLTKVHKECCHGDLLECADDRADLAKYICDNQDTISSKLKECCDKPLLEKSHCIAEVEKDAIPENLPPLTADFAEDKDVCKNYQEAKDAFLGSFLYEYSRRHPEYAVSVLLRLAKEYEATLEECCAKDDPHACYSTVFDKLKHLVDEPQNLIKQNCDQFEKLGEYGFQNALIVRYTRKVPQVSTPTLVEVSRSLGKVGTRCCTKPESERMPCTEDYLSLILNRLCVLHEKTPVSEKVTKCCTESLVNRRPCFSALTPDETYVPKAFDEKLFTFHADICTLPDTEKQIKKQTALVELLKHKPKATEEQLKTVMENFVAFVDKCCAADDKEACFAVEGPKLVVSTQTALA

Cn1c(O)c(/C=N/NC(=O)c2cc3ccccc3cc2O)c2ccccc21
IC50 [1]: > 94.1 µM (inactive)
EC50 [2]: 4.07 µM (active)
EC50 [3]: 128 µM (active)

c1coc(-c2nnc(-c3ccco3)nn2)c1
EC50 [4]: 7.69 µM (active)
IC50 [5]: 6.47 µM (active)
IC50 [6]: 9.28 µM (active)
IC50 [7]: 5.41 µM (active)
IC50 [8]: 15.8 µM (active)
EC50 [9]: 7.92 µM (inconclusive)
IC50 [10]: 17.7 µM (active)
IC50 [11]: 1.66 µM (active)

COc1ccc(CC2=CC(=O)c3ccccc3C2=O)cc1
AC50 [12]: 5.27 µM (active)
IC50 [13]: 4.12 µM (active)

O=C(Nc1cccc(NC(=O)c2ccccc2Cl)c1)c1ccc([N+](=O)[O-])o1
AC50 [14]: 7.35 µM (active)
EC50 [15]: 8.12 µM (active)
EC50 [16]: 8.33 µM (active)
AC50 [17]: 2.48 µM (active)

— ChEMBL document CHEMBL1201862, “PubChem BioAssay data set” (2004)
